Assay results: patent US9029359B2, “Heteroaryl Btk inhibitors” (Biogen Idec MA, Inc., priority 2009, dated 2015)

Molecular target: T1, BTK (Homo sapiens, UniProt Q06187)
T1 construct: purchased Upstate 14-552
Assay: In vitro BTK kinase assay: BTK-POLYGAT-LS ASSAY
Assay type: biochemical
Details: ATP 10 uM
Method: In vitro BTK kinase assay: BTK-POLYGAT-LS ASSAY. The purpose of the BTK in vitro assay is to determine compound potency against BTK through the measurement of IC50. […] A 24 μL aliquot of a ATP/peptide master mix (final concentration; ATP 10 μM, polyGAT 100 nM) in kinase buffer (10 mM Tris-HCl pH 7.5, 10 mM MgCl2, 200 μM Na3VO4, 5 mM DTT, 0.01% Triton X-100, and 0.2 mg/ml Casein) is added to each well. […] The assay is incubated for 30 minutes before being stopped with 28 μL of a 50 mM EDTA solution. […] The plate is covered and incubated for 45 minutes at room temperature. Time resolved fluorescence (TRF) on Molecular Devices M5 (332 nm excitation; 488 nm emission; 518 nm fluorescein emission) is measured.

T1 sequence (Q06187 whole entry): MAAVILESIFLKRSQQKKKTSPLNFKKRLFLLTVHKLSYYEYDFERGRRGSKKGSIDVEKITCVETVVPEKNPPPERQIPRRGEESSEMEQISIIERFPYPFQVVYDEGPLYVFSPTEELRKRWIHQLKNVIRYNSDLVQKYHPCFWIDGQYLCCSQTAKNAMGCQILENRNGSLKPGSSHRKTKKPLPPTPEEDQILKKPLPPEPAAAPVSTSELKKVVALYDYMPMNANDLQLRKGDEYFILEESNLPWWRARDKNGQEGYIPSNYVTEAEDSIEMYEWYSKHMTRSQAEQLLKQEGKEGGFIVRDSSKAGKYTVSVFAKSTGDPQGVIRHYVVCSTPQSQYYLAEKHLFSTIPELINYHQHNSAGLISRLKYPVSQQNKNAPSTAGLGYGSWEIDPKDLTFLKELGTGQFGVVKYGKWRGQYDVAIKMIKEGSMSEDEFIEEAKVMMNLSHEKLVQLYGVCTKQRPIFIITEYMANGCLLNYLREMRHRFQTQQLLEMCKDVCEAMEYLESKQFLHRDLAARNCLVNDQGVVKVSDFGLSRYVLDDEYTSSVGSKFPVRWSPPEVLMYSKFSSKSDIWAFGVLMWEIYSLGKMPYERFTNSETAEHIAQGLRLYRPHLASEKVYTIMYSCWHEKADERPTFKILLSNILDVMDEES

| SMILES | IC50 [nM] |
| --- | --- |
| Cc1cccc(Cl)c1NCC(=O)N[C@@H]1CCCN(c2ncnc3[nH]ccc23)C1 [Example 407] | 1000 to 10000 |
| CC(C)(C)[C@@H](Nc1cccc(Cl)c1)C(=O)N[C@@H]1CCCN(c2ncnc3[nH]ccc23)C1 [Example 255] | < 100 |
| O=C(CNc1ccccc1OC1CCCCCC1)N[C@@H]1CCCN(c2ncnc3[nH]ccc23)C1 [Example 251] | < 100 |
| O=C(CNc1cccc(-c2nnco2)c1)N[C@@H]1CCCN(c2ncnc3[nH]ccc23)C1 [Example 390] | 1000 to 10000 |
| O=C(CNC1CCCC1)NC1CCCN(c2ncnc3[nH]ccc23)C1 (centres unmarked) [Example 72] | 1000 to 10000 |
| CC(C)(C)c1ccccc1NCC(=O)NC1CCCN(c2ncnc3[nH]ccc23)C1 (centres unmarked) [Example 17, (N-(1-(7H-pyrrolo[2,3-d]pyrimidin-4-yl)piperidin-3-yl)-2-(2-tert-butylphenylamino)acetamide)] | 1000 to 10000 |
| O=C(CNc1ccccc1Oc1ccccc1)N[C@@H]1CCCN(c2ncnc3[nH]ccc23)C1 [Example 241] | < 100 |
| C#Cc1cccc(NCC(=O)NC2CCCN(c3ncnc4[nH]ccc34)C2)c1 (centres unmarked) [Example 55, (N-(1-(7H-pyrrolo[2,3-d]pyrimidin-4-yl)piperidin-3-yl)-2-(3-ethynylphenylamino)acetamide)] | < 100 |
| Cc1cc(NCC(=O)NC2CCCN(c3ncnc4[nH]ccc34)C2)n(C)n1 (centres unmarked) [Example 347] | > 10000 |
| O=C(CNc1cccc2c1CNC2=O)NC1CCCN(c2ncnc3[nH]ccc23)C1 (centres unmarked) [Example 54, (N-(1-(7H-pyrrolo[2,3-d]pyrimidin-4-yl)piperidin-3-yl)-2-(1-oxoisoindolin-4-ylamino)acetamide)] | > 10000 |
| CC[C@H](C)[C@@H](Nc1cc(F)cc(Cl)c1)C(=O)N[C@@H]1CCCN(c2ncnc3[nH]ncc23)C1 [Example 192] | < 100 |
| CC(C)c1ccccc1N[C@@H](C(=O)N[C@@H]1CCCN(c2ncnc3[nH]ccc23)C1)C(C)(C)C [Example 300] | 100 to 999 |
| CC(C)CN(CC(C)C)S(=O)(=O)c1ccccc1NCC(=O)N[C@@H]1CCCN(c2ncnc3[nH]ccc23)C1 [Example 179] | < 100 |
| CN(C)c1cccc(NCC(=O)NC2CCCN(c3ncnc4[nH]ccc34)C2)c1 (centres unmarked) [Example 61, (N-(1-(7H-pyrrolo[2,3-d]pyrimidin-4-yl)piperidin-3-yl)-2-(3-(dimethylamino)phenylamino)acetamide)] | 1000 to 10000 |
| CCCC[C@@H](Nc1cc(F)cc(Cl)c1)C(=O)N[C@@H]1CCCN(c2ncnc3[nH]ncc23)C1 [Example 193] | < 100 |
| O=C(CNc1ccccc1C(=O)N1CCOCC1)N[C@@H]1CCCN(c2ncnc3[nH]ccc23)C1 [Example 374] | 100 to 999 |
| O=C(CNc1cccc(SC(F)(F)F)c1)NC1CCCN(c2ncnc3[nH]ccc23)C1 (centres unmarked) [Example 82, (N-(1-(7H-pyrrolo[2,3-d]pyrimidin-4-yl)piperidin-3-yl)-2-(3-(trifluoromethylthio)phenylamino)acetamide)] | 100 to 999 |
| CC(C)CN(CC(C)C)S(=O)(=O)c1ccccc1NCC(=O)N[C@@H]1CCCN(c2ncnc3[nH]ncc23)C1 [Example 186] | < 100 |
| COc1cc(NCC(=O)N[C@@H]2CCCN(c3ncnc4[nH]ccc34)C2)cc(C(F)(F)F)c1 [Example 327] | 100 to 999 |
| N#Cc1c(N)ncnc1N1CCCC(NC(=O)CNc2ccccc2)C1 (centres unmarked) [Example 463] | > 10000 |
| CC1CCC(C)N1S(=O)(=O)c1ccccc1NCC(=O)N[C@@H]1CCCN(c2ncnc3[nH]ncc23)C1 (some centres unmarked) [Example 220] | < 100 |
| O=C(CNC(=O)c1ccc(Cl)cc1)NC1CCCN(c2ncnc3[nH]ccc23)C1 (centres unmarked) [Example 94, (N-(2-(1-(7H-pyrrolo[2,3-d]pyrimidin-4-yl)piperidin-3-ylamino)-2-oxoethyl)-4-chlorobenzamide)] | 1000 to 10000 |
| O=C(CNc1ccccc1S(=O)(=O)c1ccc(C(F)(F)F)cc1)N[C@@H]1CCCN(c2ncnc3[nH]ncc23)C1 [Example 235] | < 100 |

More lines, now with the values ahead:

| IC50 [nM] | SMILES |
| --- | --- |
| < 100 | CC[C@@H](C)[C@@H](Nc1cc(F)cc(Cl)c1)C(=O)N[C@@H]1CCCN(c2ncnc3[nH]ncc23)C1 [Example 180] |
| < 100 | O=C(CNc1ccccc1S(=O)(=O)N1CCC(C(F)(F)F)CC1)N[C@@H]1CCCN(c2ncnc3[nH]ccc23)C1 [Example 217] |
| > 10000 | O=C(CNc1ccc2c(c1)OCO2)NC1CCCN(c2nccc3[nH]ccc23)C1 (centres unmarked) [Example 335] |
| > 10000 | O=C(CNc1cccc(-c2nnco2)c1)NC1CCCN(c2ncnc3[nH]ccc23)C1 (centres unmarked) [Example 349] |
| 1000 to 10000 | CCc1cccc(CC)c1NCC(=O)NC1CCCN(c2ncnc3[nH]ccc23)C1 (centres unmarked) [Example 30, (N-(1-(7H-pyrrolo[2,3-d]pyrimidin-4-yl)piperidin-3-yl)-2-(2,6-diethylphenylamino)acetamide)] |
| 1000 to 10000 | O=C(N[C@@H]1CCCN(c2ncnc3[nH]ccc23)C1)[C@H]1CCc2ccccc2N1 [Example 14, (R)—N—((R)-1-(7H-pyrrolo[2,3-d]pyrimidin-4-yl)piperidin-3-yl)-1,2,3,4-tetrahydroquinoline-2-carboxamide] |
| > 10000 | O=C(CNc1ccccc1)N[C@@H]1CCN(c2ncnc3[nH]ccc23)C1 [Example 360] |
| 100 to 999 | C[C@H](O)[C@@H](Nc1ccccc1)C(=O)N[C@@H]1CCCN(c2ncnc3[nH]ccc23)C1 [Example 111, (2R,3S)—N—((R)-1-(7H-pyrrolo[2,3-d]pyrimidin-4-yl)piperidin-3-yl)-3-hydroxy-2-(phenylamino)butanamide] |
| < 100 | O=C(CNc1cccc2c1CCC2)NC1CCCN(c2ncnc3[nH]ccc23)C1 (centres unmarked) [Example 45, (N-(1-(7H-pyrrolo[2,3-d]pyrimidin-4-yl)piperidin-3-yl)-2-(2,3-dihydro-1H-inden-4-ylamino)acetamide)] |
| < 100 | O=C(CNc1cccc(-c2ccccc2)c1)NC1CCCN(c2ncnc3[nH]ccc23)C1 (centres unmarked) [Example 39, (N-(1-(7H-pyrrolo[2,3-d]pyrimidin-4-yl)piperidin-3-yl)-2-(biphenyl-3-ylamino-)acetamide)] |
| < 100 | O=C(CNc1cc(F)cc(F)c1)NC1CCCN(c2ncnc3[nH]ccc23)C1 (centres unmarked) [Example 68, (N-(1-(7H-pyrrolo[2,3-d]pyrimidin-4-yl)piperidin-3-yl)-2-(3,5-difluorophenylamino)acetamide)] |
| 100 to 999 | O=C(CNc1cccc(-n2cccc2)c1)N[C@@H]1CCCN(c2ncnc3[nH]ccc23)C1 [Example 303] |
| 100 to 999 | Cc1ccccc1NCC(=O)N[C@@H]1CCCN(c2ncnc3[nH]ccc23)C1 [Example 268] |
| 100 to 999 | O=C(CNc1cc(Cl)ccc1Cl)NC1CCCN(c2ncnc3[nH]ccc23)C1 (centres unmarked) [Example 35, (N-(1-(7H-pyrrolo[2,3-d]pyrimidin-4-yl)piperidin-3-yl)-2-(2,5-dichlorophenylamino)acetamide)] |
| 100 to 999 | Nc1ncnc(N2CCC[C@@H](NC(=O)CNc3cc(Cl)cc(Cl)c3)C2)c1CCCO [Example 320] |
| 100 to 999 | NC(=O)c1c(N)ncnc1N1CCC[C@@H](NC(=O)CNc2cc(Cl)cc(Cl)c2)C1 [Example 326] |
| 1000 to 10000 | Cc1c(O)cccc1NCC(=O)N[C@@H]1CCCN(c2ncnc3[nH]ccc23)C1 [Example 398] |
| 100 to 999 | Cc1cccc(NCC(=O)NC2CCCN(c3ncnc4[nH]ccc34)C2)c1C (centres unmarked) [Example 84, (N-(1-(7H-pyrrolo[2,3-d]pyrimidin-4-yl)piperidin-3-yl)-2-(2,3-dimethylphenylamino)acetamide)] |
